Columns and labels:
[1] = test system: HCV replicon cells (2209-23), genotype 1b replicon in human hepatoma Huh7 cells; assay: HCV replicon assay (Renilla luciferase reporter); type: cell-based, HCV genotype 1b; settings: Hepatitis C virus, Huh-7, 72 h; 2209-23 cells, three days incubation
[2] = molecular target: T1, HCV polymerase (NS5B570n-Con1) (Hepatitis C virus genotype 1b, UniProt Q9WMX2); assay: HCV NS5B RNA polymerase activity (incorporation of radiolabeled nucleotide into acid insoluble RNA); type: biochemical, HCV Con1 strain
T1 construct: a 21 amino acid C-terminal deletion of full-length HCV polymerase; made in house; host or cells: E. coli BL21(DE3) pLysS, plasmid pET17b
Procedure: The enzymatic activity of HCV polymerase (NS5B570n-Con1) was measured as the incorporation of radiolabeled nucleotide monophosphates into acid insoluble RNA products. Unincorporated radiolabeled substrate was removed by filtration and scintillant was added to the washed and dried filter plate containing radiolabeled RNA product. The amount of RNA product generated by NS5B570n-Con1 at the end of the reaction was directly proportional to the amount of light emitted by the scintillant.
The HCV polymerase used in the enzymatic activity assay is a 21 amino acid C-terminal deletion of full-length HCV polymerase derived from HCV Con1 strain, genotype 1b (GenBank accession number AJ242654) (NS5B570n-Con1). The NS5B570n-Con1 was sub-cloned downstream to the T7 promoter of the plasmid expression construct pET17b and transformed into E. coli strain BL21(DE3) pLysS for protein expression. A single colony was used to start an innoculum for a 10 L culture in LB media supplemented with 100 μg/mL ampicillin at 37° C. Protein expression was induced by the addition of 0.25 mM isopropyl-β-D-thiogalactopyranoside (IPTG) when the optical density of the culture at […] was 0.8. Induction of protein expression was carried out at 30° C. for 16 h after which the cells were harvested by centrifugation. NS5B570n-Con1 was purified to homogeneity using a three-column purification protocol including subsequent column chromatography on Ni-NTA, SP-Sepharose HP and Superdex 75 resins.
Enzymatic reactions in the presence of cIRES RNA template (see paragraph [00213]) contained 20 nM cIRES RNA, 20 nM NS5B570n-Con1 enzyme, 0.5 μCi of tritiated UTP (Perkin Elmer catalog no. TRK-412; specific activity: 30 to 60 Ci/mmol;), 1 μM each ATP, CTP, and GTP, 40 mM Tris-HCl pH 8.0, 40 mM NaCl, 4 mM DTT (dithiothreitol), 4 mM MgCl2, 5 μl of compound serial diluted in DMSO, and nuclease-free water to a final reaction volume of 50 μl. Enzymatic reactions in the presence of poly A RNA template (see paragraph [00213]) contained 20 nM Poly A:oligo(rU)16 premixed (see section 0004), 20 nM NS5B570n-Con1 enzyme, 1 μCi of tritiated UTP (Perkin Elmer catalog no. TRK-412; specific activity: 30 to 60 Ci/mmol), 40 mM Tris-HCl pH 8.0, 40 mM NaCl, 4 mM DTT (dithiothreitol), 4 mM MgCl2, 5 μl of compound serial diluted in DMSO, and nuclease-free water to a final reaction volume of 50 μl. Reaction mixtures were assembled in 96-well filter plates (cat #MADVN0B, Millipore Co.) and incubated for 2 h at 30° C. Reactions were stopped by addition of 10% final (v/v) trichloroacetic acid and incubated for 40 min at 4° C. Reactions were filtered, washed with 8 reaction volumes of 10% (v/v) trichloroacetic acetic acid, 4 reaction volumes of 70% (v/v) ethanol, air dried, and 25 μl of scintillant (Microscint 20, Perkin-Elmer) was added to each reaction well.
Two RNA templates were used to assay compounds described herein. The cIRES RNA template was 377 nucleotide long and consisted of a partial complementary sequence (36 nucleotides) of the core protein, followed by 341 nucleotide of the complementary sequence of the internal ribosome entry site. The poly A RNA template (GE Amersham catalog number 27-4110) was a homopolymeric RNA pre-annealed to a oligo(rU)16 primer at a molar ratio of 3-to-1 (primer-template).
The amount of light emitted from the scintillant was converted to counts per minute (CPM) on a Topcount® plate reader (Perkin-Elmer, Energy Range: Low, Efficiency Mode: Normal, Count Time: 1 min, Background Subtract: none, Cross talk reduction: Off).
Data was analyzed in Excel® (Microsoft®) and ActivityBase® (Idbs®). The reaction in the absence of enzyme was used to determine the background signal, which was subtracted from the enzymatic reactions. Positive control reactions were performed in the absence of compound, from which the background corrected activity was set as 100% polymerase activity. All data was expressed as a percentage of the positive control. […]

SMILES	IC50 [1]	IC50 [2]
Cc1cc(N)n2nc(-c3ccc(-c4cc5c(s4)c(=O)ncn5Cc4ccc(Cl)cc4)cc3Cl)cc2n1 [Compound I-2, 6-[4-(7-Amino-5-methyl-pyrazolo[1,5-a]pyrimidin-2-yl)-3-chloro-phenyl]-1-(4-chloro-benzyl)-1H-thieno[3,2-d]pyrimidin-4-one]	4.1 nM	4 nM
Cc1ccc(Cn2cnc(=O)c3sc(-c4ccc(-c5cc6nc(C)cc(N)n6n5)cc4)cc32)cc1 [Compound I-38, 6-[4-(7-Amino-5-methyl-pyrazolo[1,5-a]pyrimidin-2-yl)-phenyl]-1-(4-methyl-benzyl)-1H-thieno[3,2-d]pyrimidin-4-one]	47.2 nM	210 nM
